The target of one assay is T1, human EHMT2 913-1193 (Homo sapiens, UniProt Q96KQ7).
T1 sequence (Q96KQ7 913-1193): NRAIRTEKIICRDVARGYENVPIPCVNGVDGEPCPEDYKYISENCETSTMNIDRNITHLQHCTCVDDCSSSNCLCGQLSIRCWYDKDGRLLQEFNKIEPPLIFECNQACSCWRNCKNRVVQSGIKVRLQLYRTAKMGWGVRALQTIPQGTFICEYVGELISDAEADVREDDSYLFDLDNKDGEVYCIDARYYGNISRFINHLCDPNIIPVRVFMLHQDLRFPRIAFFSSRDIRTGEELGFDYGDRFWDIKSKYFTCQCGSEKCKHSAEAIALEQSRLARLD
Briefly: EHMT2 enzyme assay on histone peptide substrate (3H-SAM SPA). As to conditions: EHMT2 IC50, recombinant human EHMT2 913-1193, histone peptide substrate.

The target of a further assay is T2, human EHMT1 982-1266 (Homo sapiens, UniProt Q9H9B1).
T2 sequence (Q9H9B1 982-1266): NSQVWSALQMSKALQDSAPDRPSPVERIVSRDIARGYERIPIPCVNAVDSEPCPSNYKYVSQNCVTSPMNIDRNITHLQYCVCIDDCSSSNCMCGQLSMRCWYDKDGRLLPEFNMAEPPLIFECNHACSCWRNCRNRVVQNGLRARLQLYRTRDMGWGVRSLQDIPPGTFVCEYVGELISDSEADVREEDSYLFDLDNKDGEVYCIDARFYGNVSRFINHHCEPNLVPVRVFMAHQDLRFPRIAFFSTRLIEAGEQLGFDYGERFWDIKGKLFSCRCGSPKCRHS
Briefly: EHMT1 enzyme assay on histone peptide substrate (3H-SAM SPA). To be noted: EHMT1 IC50, recombinant human EHMT1 982-1266, histone peptide substrate.

The next assay deals with H3K9me2 in HCT116 cells. The assay is described as follows: HCT116 H3K9me2 in-cell western assay. Format: cell-based. To be noted: Homo sapiens, HCT-116, 72 h, HCT116 cells, 72 hours incubation; read-out: H3K9me2 ICW IC50. The method in brief: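 H3K9me2 signal (800 nm) was normalized to DRAQ5 DNA stain (700 nm) in an in-cell western. Cells were fixed with paraformaldehyde and probed overnight at 4° C with primary antibody.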

For the molecule `CNc1nc(Nc2cc3c(c(C4=CCNCCC4)c2F)OCC3)nc(C)c1F` [Compound 242], the half-inhibitory concentration (IC50) on human EHMT2 913-1193, at human EHMT1 982-1266 and in the assay with H3K9me2 in HCT116 cells was below 100 nM in each case.

As for `CNc1cc(Nc2cc3c(c(C4=CCNCCC4)c2F)OCCC3)nc(C)c1F` [Compound 243], the IC50 on human EHMT2 913-1193, at human EHMT1 982-1266 and with H3K9me2 in HCT116 cells was below 100 nM throughout.

Consider `[2H]C([2H])([2H])CNc1cc(C)nc(Nc2cc3c(c(C4=CCN(C)CCC4)c2)OCO3)n1` [Compound 244], for which the IC50 at human EHMT2 913-1193 is 100 to 500 nM; at human EHMT1 982-1266, below 100 nM; with H3K9me2 in HCT116 cells it was 100 to 500 nM.

Take `CNc1nc(Nc2cc3c(c(C4=CCN(C)CCC4)c2F)OCC3)nc(C)c1F` [Compound 245]: the concentration for half-maximal inhibition (IC50) at human EHMT2 913-1193 lay in the range of 500 to 2000 nM; on human EHMT1 982-1266 it was 100 to 500 nM; in the assay on H3K9me2 in HCT116 cells, 100 to 500 nM.

With `[2H]C([2H])([2H])CNc1cc(C)nc(Nc2cc3c(c(C4=CCNCCC4)c2)OCO3)n1` [Compound 246], the IC50 at human EHMT2 913-1193, at human EHMT1 982-1266 and in the assay on H3K9me2 in HCT116 cells was below 100 nM each time.

Consider `CNc1cc(CC(F)(F)F)nc(Nc2cc3c(c(C4=CCNCCC4)c2)OCC3)c1` [Compound 247], for which the IC50 on human EHMT2 913-1193, at human EHMT1 982-1266 and in the assay on H3K9me2 in HCT116 cells was 100 to 500 nM in each case.

Take `[2H]Cc1cc(NC)nc(Nc2cc3c(c(C4=CCNCCC4)c2)OCCC3)n1` [Compound 248]: the IC50 at human EHMT2 913-1193, on human EHMT1 982-1266 and with H3K9me2 in HCT116 cells was below 100 nM each time.

With `[2H]Cc1cc(NC([2H])([2H])[2H])nc(Nc2cc3c(c(C4=CCNCCC4)c2)OCCC3)n1` [Compound 250], the half-maximal inhibitory concentration (IC50) on human EHMT2 913-1193, on human EHMT1 982-1266 and in the assay with H3K9me2 in HCT116 cells was below 100 nM in each case.

Consider `[2H]Cc1cc(NC([2H])([2H])[2H])nc(Nc2cc3c(c(C4=CCN(C)CCC4)c2)OCCC3)n1` [Compound 251], for which the IC50 on human EHMT2 913-1193, at human EHMT1 982-1266 and with H3K9me2 in HCT116 cells was below 100 nM each time.

Consider `[2H]Cc1cc(NC([2H])([2H])[2H])nc(Nc2cc3c(c(C4=CCNCCC4)c2)OCO3)n1` [Compound 252], for which the IC50 on human EHMT2 913-1193, on human EHMT1 982-1266 and in the assay with H3K9me2 in HCT116 cells was below 100 nM throughout.

`[2H]Cc1cc(NC([2H])([2H])[2H])nc(Nc2cc3c(c(C4=CCN(C)CCC4)c2)OCO3)n1` [Compound 254]: the IC50 at human EHMT2 913-1193, at human EHMT1 982-1266 and in the assay on H3K9me2 in HCT116 cells was below 100 nM throughout.

For the molecule `CNc1cc(Nc2cc3c(c(C4=CCN(C)CCC4)c2F)OCC3)nc(C)c1F` [Compound 255], the IC50 on human EHMT2 913-1193, on human EHMT1 982-1266 and in the assay on H3K9me2 in HCT116 cells was below 100 nM each time.

Take `[2H]C([2H])([2H])Nc1nc(Nc2cc3c(c(C4=CCNCCC4)c2F)OCC3)nc(C)c1F` [Compound 256]: the IC50 on human EHMT2 913-1193, at human EHMT1 982-1266 and with H3K9me2 in HCT116 cells was below 100 nM each time.

For the molecule `CNc1cc(Nc2cc3c(c(C4=CCNCCC4)c2F)OCC3)nc(C)c1F` [Compound 257], the IC50 at human EHMT2 913-1193, at human EHMT1 982-1266 and with H3K9me2 in HCT116 cells was below 100 nM throughout.

Turning to `[2H]C([2H])([2H])CNc1nc(Nc2cc3c(c(C4=CCNCCC4)c2F)OCC3)nc(C)c1F` [Compound 258], the IC50 on human EHMT2 913-1193, at human EHMT1 982-1266 and in the assay on H3K9me2 in HCT116 cells was 100 to 500 nM in each case.

For `[2H]C([2H])([2H])CNc1cc(C)nc(Nc2cc3c(c(C4=CCN(C)CCC4)c2)OCCC3)n1` [Compound 259], the IC50 was 100 to 500 nM at human EHMT2 913-1193, below 100 nM on human EHMT1 982-1266 and 100 to 500 nM in the assay on H3K9me2 in HCT116 cells.

As for `[2H]Cc1cc(NCC([2H])([2H])[2H])nc(Nc2cc3c(c(C4=CCN(C)CCC4)c2F)OCC3)n1` [Compound 260], the IC50 at human EHMT2 913-1193, on human EHMT1 982-1266 and in the assay on H3K9me2 in HCT116 cells was below 100 nM in each case.

As for `[2H]C([2H])([2H])CNc1nc(Nc2cc3c(c(C4=CCN(C)CCC4)c2F)OCC3)nc(C)c1F` [Compound 261], the IC50 on human EHMT2 913-1193 is 500 to 2000 nM; on human EHMT1 982-1266, 100 to 500 nM; with H3K9me2 in HCT116 cells it was 100 to 500 nM.

`[2H]Cc1cc(NCC([2H])([2H])[2H])nc(Nc2cc3c(c(C4=CCNCCC4)c2F)OCC3)n1` [Compound 262]: the IC50 on human EHMT2 913-1193, at human EHMT1 982-1266 and in the assay on H3K9me2 in HCT116 cells was below 100 nM in each case.

On to `[2H]C([2H])([2H])CNc1cc(C)nc(Nc2cc3c(c(C4=CCNCCC4)c2)OCCC3)n1` [Compound 263], for which the figures for the 50% inhibitory concentration (IC50) at human EHMT2 913-1193, at human EHMT1 982-1266 and in the assay on H3K9me2 in HCT116 cells were below 100 nM, below 100 nM and 100 to 500 nM, respectively.

Regarding `[2H]C([2H])([2H])Nc1cc(C)nc(Nc2cc3c(c(C4=CCNCCC4)c2)OCCC3)n1` [Compound 264], the IC50 on human EHMT2 913-1193, on human EHMT1 982-1266 and in the assay with H3K9me2 in HCT116 cells was below 100 nM each time.

On to `[2H]Cc1cc(NC)nc(Nc2cc3c(c(C4=CCN(C)CCC4)c2)OCO3)n1` [Compound 265], for which the IC50 at human EHMT2 913-1193, on human EHMT1 982-1266 and in the assay with H3K9me2 in HCT116 cells was below 100 nM in each case.

For the molecule `[2H]Cc1cc(NC)nc(Nc2cc3c(c(C4=CCN(C)CCC4)c2)OCCO3)n1` [Compound 266], the IC50 on human EHMT2 913-1193 is 100 to 500 nM; on human EHMT1 982-1266, below 100 nM; in the assay on H3K9me2 in HCT116 cells, below 100 nM.

Regarding `CNc1nc(Nc2cc3c(c(C4=CCN(C)CCC4)c2)OCC3)nc(C)c1F` [Compound 267], the results for the IC50 at human EHMT2 913-1193, on human EHMT1 982-1266 and with H3K9me2 in HCT116 cells were 500 to 2000 nM, 100 to 500 nM and 100 to 500 nM, respectively.

As for `[2H]C([2H])([2H])Nc1cc(C)nc(Nc2cc3c(c(C4=CCN(C)CCC4)c2)OCCC3)n1` [Compound 268], the IC50 was 100 to 500 nM on human EHMT2 913-1193, below 100 nM on human EHMT1 982-1266 and 100 to 500 nM in the assay on H3K9me2 in HCT116 cells.

In the case of `[2H]Cc1cc(NC)nc(Nc2cc3c(c(C4=CCNCCC4)c2)OCO3)n1` [Compound 269], the IC50 on human EHMT2 913-1193, at human EHMT1 982-1266 and with H3K9me2 in HCT116 cells was below 100 nM throughout.

Turning to `[2H]Cc1cc(NC)nc(Nc2cc3c(c(C4=CCNCCC4)c2)OCCO3)n1` [Compound 270], the IC50 on human EHMT2 913-1193, on human EHMT1 982-1266 and in the assay with H3K9me2 in HCT116 cells was below 100 nM in each case.

Take `[2H]C([2H])([2H])Nc1nc(Nc2cc3c(c(C4=CCN(C)CCC4)c2)OCC3)nc(C)c1F` [Compound 271]: the IC50 on human EHMT2 913-1193 was 500 to 2000 nM; at human EHMT1 982-1266 it was 100 to 500 nM; with H3K9me2 in HCT116 cells it was 100 to 500 nM.

On to `[2H]C([2H])([2H])CNc1cc(C)nc(Nc2cc3c(c(C4=CCN(C)CCC4)c2)OCCO3)n1` [Compound 272], for which the IC50 at human EHMT2 913-1193 fell in the range of 500 to 2000 nM; on human EHMT1 982-1266 it was 100 to 500 nM; with H3K9me2 in HCT116 cells, 100 to 500 nM.

As for `[2H]C([2H])([2H])Nc1cc(C)nc(Nc2cc3c(c(C4=CCN(C)CCC4)c2)OCO3)n1` [Compound 273], the IC50 was 100 to 500 nM on human EHMT2 913-1193, below 100 nM at human EHMT1 982-1266 and below 100 nM in the assay on H3K9me2 in HCT116 cells.

Take `[2H]C([2H])([2H])N1CC=C(c2cc(Nc3nc(C)cc(NC)n3)cc3c2OCC3)CCC1` [Compound 274]: the IC50 on human EHMT2 913-1193, at human EHMT1 982-1266 and with H3K9me2 in HCT116 cells was below 100 nM in each case.

`[2H]C([2H])([2H])Nc1nc(Nc2cc3c(c(C4=CCNCCC4)c2)OCO3)nc(C)c1F` [Compound 275]: the IC50 at human EHMT2 913-1193 fell in the range of 500 to 2000 nM; at human EHMT1 982-1266 it was 100 to 500 nM; with H3K9me2 in HCT116 cells, 100 to 500 nM.

With `[2H]C([2H])([2H])Nc1nc(Nc2cc3c(c(C4=CCNCCC4)c2)OCC3)nc(C)c1F` [Compound 276], the IC50 at human EHMT2 913-1193, at human EHMT1 982-1266 and in the assay on H3K9me2 in HCT116 cells was 100 to 500 nM in each case.

By IC50 is commonly meant the point on the concentration scale where inhibition reaches its midpoint.

For the origin of these results see patent US20240368139A1, “NOVEL MODULATORS OF EHMT1 AND EHMT2 AND THERAPEUTIC USE THEREOF” (Tango Therapeutics, Inc., priority 2021, published 2024).
